Reference: PMC6199744, “Development of Chemical Proteomics for the Folateome and Analysis of the Kinetoplastid Folateome” (ACS Infectious Diseases, 2018)
Read-outs that look alike come from different tables or passages of the source.

What was measured:
Format in all cases: binding
[1] = biological target: T1, HeLa cell extract proteins (Homo sapiens, UniProt O00462)
T1 construct: endogenous in cells; host or cells: HeLa cell extract
T1 sequence (O00462 18-879): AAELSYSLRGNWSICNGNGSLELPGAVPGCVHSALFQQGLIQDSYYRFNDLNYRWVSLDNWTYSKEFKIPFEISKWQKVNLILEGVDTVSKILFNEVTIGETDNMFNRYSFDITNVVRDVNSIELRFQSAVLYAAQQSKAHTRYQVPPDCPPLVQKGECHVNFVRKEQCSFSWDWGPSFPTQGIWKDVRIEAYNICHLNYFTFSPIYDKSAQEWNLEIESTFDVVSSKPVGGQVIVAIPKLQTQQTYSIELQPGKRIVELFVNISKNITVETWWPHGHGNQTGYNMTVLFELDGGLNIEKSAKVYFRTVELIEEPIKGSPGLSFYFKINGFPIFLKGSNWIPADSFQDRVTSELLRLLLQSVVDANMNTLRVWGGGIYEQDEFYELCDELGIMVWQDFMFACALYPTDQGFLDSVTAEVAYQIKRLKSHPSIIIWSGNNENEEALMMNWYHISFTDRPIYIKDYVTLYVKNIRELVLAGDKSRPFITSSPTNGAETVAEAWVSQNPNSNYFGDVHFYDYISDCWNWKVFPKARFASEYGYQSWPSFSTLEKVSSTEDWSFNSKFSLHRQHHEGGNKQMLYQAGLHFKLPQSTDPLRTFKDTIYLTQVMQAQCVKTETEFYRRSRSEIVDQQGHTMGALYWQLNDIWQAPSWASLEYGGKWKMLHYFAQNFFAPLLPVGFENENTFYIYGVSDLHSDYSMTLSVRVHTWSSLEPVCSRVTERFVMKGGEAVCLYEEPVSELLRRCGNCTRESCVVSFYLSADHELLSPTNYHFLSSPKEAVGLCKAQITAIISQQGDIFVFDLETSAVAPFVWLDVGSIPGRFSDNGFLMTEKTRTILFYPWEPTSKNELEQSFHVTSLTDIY

[2] = biological target: T2, HeLa cell extract proteins (Homo sapiens, UniProt O75534)
T2 construct: endogenous in cells; host or cells: HeLa cell extract
T2 sequence (O75534 1-798): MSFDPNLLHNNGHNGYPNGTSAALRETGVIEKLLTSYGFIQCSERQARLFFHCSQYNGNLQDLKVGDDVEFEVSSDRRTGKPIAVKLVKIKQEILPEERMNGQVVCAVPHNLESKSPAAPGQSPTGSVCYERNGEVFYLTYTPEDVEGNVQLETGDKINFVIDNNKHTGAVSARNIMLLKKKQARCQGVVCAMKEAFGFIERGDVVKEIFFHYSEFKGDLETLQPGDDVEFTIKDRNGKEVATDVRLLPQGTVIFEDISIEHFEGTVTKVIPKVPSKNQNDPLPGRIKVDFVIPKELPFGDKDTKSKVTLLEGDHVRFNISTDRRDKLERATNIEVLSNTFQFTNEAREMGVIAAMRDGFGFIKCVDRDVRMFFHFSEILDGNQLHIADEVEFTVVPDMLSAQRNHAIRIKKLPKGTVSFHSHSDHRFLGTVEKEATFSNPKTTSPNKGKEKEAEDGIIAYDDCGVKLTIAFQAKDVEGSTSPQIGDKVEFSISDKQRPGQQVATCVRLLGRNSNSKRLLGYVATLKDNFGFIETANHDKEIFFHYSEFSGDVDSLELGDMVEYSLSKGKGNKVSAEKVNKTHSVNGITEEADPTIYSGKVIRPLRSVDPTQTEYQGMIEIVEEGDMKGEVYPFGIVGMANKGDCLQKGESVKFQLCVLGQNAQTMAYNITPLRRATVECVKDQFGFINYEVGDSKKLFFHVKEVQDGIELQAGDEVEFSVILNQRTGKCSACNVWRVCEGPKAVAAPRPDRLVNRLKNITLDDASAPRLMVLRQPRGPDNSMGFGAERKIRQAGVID

[3] = biological target: T3, HeLa cell extract proteins (Homo sapiens, UniProt Q10570)
T3 construct: endogenous in cells; host or cells: HeLa cell extract
T3 sequence (Q10570 1-1443): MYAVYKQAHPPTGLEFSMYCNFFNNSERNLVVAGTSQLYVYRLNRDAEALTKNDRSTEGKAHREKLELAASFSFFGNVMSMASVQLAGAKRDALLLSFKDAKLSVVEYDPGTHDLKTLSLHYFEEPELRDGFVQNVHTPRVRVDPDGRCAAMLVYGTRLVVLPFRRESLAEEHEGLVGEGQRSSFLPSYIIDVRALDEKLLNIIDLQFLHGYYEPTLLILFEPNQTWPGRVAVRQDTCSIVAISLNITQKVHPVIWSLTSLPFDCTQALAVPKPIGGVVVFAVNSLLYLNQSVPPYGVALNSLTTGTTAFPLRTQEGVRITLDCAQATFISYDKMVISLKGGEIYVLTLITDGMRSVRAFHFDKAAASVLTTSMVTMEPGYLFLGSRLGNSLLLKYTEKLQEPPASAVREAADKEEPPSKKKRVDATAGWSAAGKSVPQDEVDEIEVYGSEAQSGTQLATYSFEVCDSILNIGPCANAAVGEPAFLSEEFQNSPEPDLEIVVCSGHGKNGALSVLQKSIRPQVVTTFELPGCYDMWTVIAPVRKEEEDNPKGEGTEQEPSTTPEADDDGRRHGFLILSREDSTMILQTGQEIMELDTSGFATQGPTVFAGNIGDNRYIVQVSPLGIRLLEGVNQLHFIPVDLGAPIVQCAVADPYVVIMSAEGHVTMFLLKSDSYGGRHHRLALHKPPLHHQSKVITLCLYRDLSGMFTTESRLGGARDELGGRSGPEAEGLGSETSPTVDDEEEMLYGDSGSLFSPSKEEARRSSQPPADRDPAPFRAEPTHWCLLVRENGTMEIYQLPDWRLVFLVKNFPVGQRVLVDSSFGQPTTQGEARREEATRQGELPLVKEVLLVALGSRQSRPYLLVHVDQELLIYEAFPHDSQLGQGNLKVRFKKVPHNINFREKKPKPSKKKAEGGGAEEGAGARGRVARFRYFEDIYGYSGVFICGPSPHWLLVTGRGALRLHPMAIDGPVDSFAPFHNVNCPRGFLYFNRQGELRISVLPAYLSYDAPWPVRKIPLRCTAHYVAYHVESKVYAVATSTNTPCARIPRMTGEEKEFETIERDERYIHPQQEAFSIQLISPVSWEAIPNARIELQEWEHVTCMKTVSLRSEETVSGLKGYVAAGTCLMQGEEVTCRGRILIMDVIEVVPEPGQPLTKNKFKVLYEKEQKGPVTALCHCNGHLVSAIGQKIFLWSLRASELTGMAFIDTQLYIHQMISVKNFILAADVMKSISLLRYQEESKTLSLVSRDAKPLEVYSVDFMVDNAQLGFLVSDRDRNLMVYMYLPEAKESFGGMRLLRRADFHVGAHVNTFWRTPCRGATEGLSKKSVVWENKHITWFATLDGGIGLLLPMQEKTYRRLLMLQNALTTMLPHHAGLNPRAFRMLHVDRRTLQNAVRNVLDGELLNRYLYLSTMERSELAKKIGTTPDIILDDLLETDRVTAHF

[4] = HeLa, protein MANBA (BETA-MANNOSIDASE PRECURSOR)

Row | SMILES | fold changes relative to vehicle control [1, 4] | fold changes relative to vehicle control ([2]; HeLa, protein CSDE1) | fold changes relative to vehicle control ([3]; HeLa, captured protein CPSF1) | fold changes relative to vehicle control [1] | fold changes relative to vehicle control [2] | fold changes relative to vehicle control [3] | fold changes relative to vehicle control ([1]; HeLa, protein MANBA (BETA-M[…]))
1 | NCCOCCOCC(=O)Nc1nc2ncc(CNc3ccc(C(=O)NC(CCC(=O)O)C(=O)O)cc3)nc2c(=O)[nH]1 (stereo not drawn) [compound 6] | 0.71 | 1.22 | 0.97 | – | – | – | –
2 | Nc1nc2[nH]cc(CCc3ccc(C(=O)N[C@@H](CCC(=O)O)C(=O)O)cc3)c2c(=O)[nH]1 [PTX, pemetrexed] | – | – | – | 0.71 | 1.14 | 0.88 | –
3 | Nc1nc2c(c(=O)[nH]1)N(C=O)C(CNc1ccc(C(=O)N[C@@H](CCC(=O)O)C(=O)O)cc1)CN2 (stereo partly drawn) [LEU, leucovorin] | – | 0.96 | 0.95 | – | – | – | 1.01
4 | NCCCNc1ccc(C(=O)NC(CCC(=O)O)C(=O)O)cc1 (stereo not drawn) [compound 7] | 0.91 | 1.05 | 0.93 | – | – | – | –
